Measurements from publication PMC9975586, “Inhibitory effect of Selaginella doederleinii hieron on human cytochrome P450” (Frontiers in Pharmacology, 2023).
Read-outs that look alike come from different tables or passages of the source.

Columns and labels:
CYP2D6 [1] = biological target: T1, CYP2D6 (Homo sapiens, UniProt P10635); test: CYP450 cocktail inhibition assay (LC-MS/MS, human liver microsomes)
Protocol: (§1) The contents of organic solvent and DMSO in incubation mixture was under 1% (v/v) and 0.1% (v/v) respectively. Reactions were terminated by adding 200 µL of an ice-cold stop solution consisting of methanol containing Rutin (2 µg/ml) as internal standard. Samples were subsequently cooled in ice bath to precipitate proteins. Supernatants were collected into clean tubes after centrifugation at 12000 rpm at 4°C for 10 min prior to inject into LC-MS/MS.
(§2) Percentages of control activity were calculated to determine inhibition potency. The inhibition curves were obtained by incubating the cocktail of substrates with 10–11 different compounds’ concentrations, where Delicaflavone and Amentoflavone were 0–50 µM.
(§3) For specific MRM parameters, please refer to Supplementary Table S3.

CYP2C9 = CYP2C9 (Homo sapiens, UniProt P11712); test: as above; details: for inhibition at 15 min, 10 µM: human, microsomes, pH 7.4
Protocol: as §1, §2, §3

CYP2C19 [2] = biological target: T2, CYP2C19 (Homo sapiens, UniProt P33261); test: as above
Protocol: as §1, §2, §3

CYP2C8 = biological target: T3, CYP2C8 (Homo sapiens, UniProt P10632); test: as above; details: for inhibition at 15 min, 10 µM: human, microsomes, pH 7.4
T3 sequence (P10632 1-490): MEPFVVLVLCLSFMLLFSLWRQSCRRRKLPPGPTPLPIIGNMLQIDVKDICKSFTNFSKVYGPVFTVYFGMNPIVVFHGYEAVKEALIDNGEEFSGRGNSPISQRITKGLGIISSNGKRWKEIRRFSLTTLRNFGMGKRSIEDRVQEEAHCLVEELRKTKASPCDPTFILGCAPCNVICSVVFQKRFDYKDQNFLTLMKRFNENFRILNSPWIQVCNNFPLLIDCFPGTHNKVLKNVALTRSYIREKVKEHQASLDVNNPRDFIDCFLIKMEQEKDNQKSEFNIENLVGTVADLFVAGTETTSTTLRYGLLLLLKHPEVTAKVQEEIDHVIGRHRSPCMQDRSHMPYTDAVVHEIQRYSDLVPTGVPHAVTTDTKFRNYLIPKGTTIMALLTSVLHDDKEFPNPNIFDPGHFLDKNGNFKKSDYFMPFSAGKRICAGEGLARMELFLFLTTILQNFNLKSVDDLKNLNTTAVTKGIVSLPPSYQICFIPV
Protocol: as §1, §2, §3

CYP2E1 = CYP2E1 (Homo sapiens, UniProt P05181); test: as above; details: for inhibition at 15 min, 10 µM: human, pH 7.4
Protocol: as §1, §2, §3

CYP3A = CYP3A (Homo sapiens, UniProt P08684); test: as above; assay type: in vitro ADME; details: for IC50 at 15 min / inhibition at 15 min, 10 µM: human, liver microsomes
CYP1A2 = biological target: T4, CYP1A2 (Homo sapiens, UniProt P05177); test: as above; assay type: in vitro ADME; details: for IC50: HLM 0.5 mg/mL, substrate Phenacetin 10 μM, 15 min
T4 sequence (P05177 1-516): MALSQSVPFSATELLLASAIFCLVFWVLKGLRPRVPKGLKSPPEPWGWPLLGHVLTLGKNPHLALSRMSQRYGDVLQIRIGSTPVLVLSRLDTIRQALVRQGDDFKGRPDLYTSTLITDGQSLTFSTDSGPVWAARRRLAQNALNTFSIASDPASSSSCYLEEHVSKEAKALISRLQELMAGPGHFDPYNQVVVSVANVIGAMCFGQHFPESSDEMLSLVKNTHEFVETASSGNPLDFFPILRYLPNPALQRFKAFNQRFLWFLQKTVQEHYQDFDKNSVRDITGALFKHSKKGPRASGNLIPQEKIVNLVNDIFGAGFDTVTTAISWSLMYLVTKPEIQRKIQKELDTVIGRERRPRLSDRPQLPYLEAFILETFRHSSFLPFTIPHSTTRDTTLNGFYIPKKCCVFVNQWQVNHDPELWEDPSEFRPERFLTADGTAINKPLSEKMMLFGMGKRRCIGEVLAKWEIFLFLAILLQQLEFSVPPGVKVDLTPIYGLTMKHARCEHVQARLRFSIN
Protocol: as §1, §2, §3

CYP2D6 [3] = biological target: T1, CYP2D6; test: Time-dependent inhibition study (pre-incubation with HLM with/without NADPH, cocktail assay); assay type: in vitro ADME; details: single point screening; SDEA 0.5 μg/ml, Amentoflavone 0.1 μM, Delicaflavone 2 μM; 35 min pre-incubation with/without NADPH
Protocol: (§4) Enzymes that may be involved in time-dependent were pre-incubated for 0, 5, 10, 15 and 35 min respectively, and then re-incubated to determine the type of inhibition. Residual enzyme activity pre-incubated without NADPH was set as the control group, then drawing suppression curves based on the measured data.

CYP2C19 [4] = biological target: T2, CYP2C19; test: as above; assay type: in vitro ADME; details: single point screening; SDEA 0.5 μg/ml, Amentoflavone 0.1 μM, Delicaflavone 2 μM; 35 min pre-incubation with/without NADPH
Protocol: as §4

CYP3A (Testosterone) = test: as above; assay type: in vitro ADME, human; details: single point screening; SDEA 0.5 μg/ml, Delicaflavone 2 μM; 35 min pre-incubation with/without NADPH
Protocol: as §4

[5] = pH 7.4, probe Dextromethorphan (3-methoxymorphinan formation, in cocktail)
[6] = pH 7.4, probe Testosterone 5 µM (in cocktail)
[7] = pH 7.4, probe Testosterone (in cocktail), single-point, 10 μM, cocktail assay, HLM, substrate Testosterone, read-out: inhibitory effect on CYP3A (Testosterone)
[8] = single-point, 10 μM, cocktail assay, HLM

Chain of CYP3A (P08684 2-503): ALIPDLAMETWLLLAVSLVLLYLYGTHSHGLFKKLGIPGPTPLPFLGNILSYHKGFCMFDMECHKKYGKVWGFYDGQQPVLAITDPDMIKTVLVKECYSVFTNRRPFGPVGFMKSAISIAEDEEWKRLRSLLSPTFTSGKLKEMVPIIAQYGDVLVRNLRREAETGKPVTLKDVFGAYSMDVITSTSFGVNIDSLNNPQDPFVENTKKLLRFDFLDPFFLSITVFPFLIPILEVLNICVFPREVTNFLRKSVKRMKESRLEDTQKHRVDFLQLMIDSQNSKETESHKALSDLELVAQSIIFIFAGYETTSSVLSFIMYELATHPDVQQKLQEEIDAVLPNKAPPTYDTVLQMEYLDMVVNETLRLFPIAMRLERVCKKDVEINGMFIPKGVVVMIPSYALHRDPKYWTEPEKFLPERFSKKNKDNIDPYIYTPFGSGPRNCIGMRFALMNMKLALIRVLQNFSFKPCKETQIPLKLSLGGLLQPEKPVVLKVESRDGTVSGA
T1 sequence (P10635 whole entry): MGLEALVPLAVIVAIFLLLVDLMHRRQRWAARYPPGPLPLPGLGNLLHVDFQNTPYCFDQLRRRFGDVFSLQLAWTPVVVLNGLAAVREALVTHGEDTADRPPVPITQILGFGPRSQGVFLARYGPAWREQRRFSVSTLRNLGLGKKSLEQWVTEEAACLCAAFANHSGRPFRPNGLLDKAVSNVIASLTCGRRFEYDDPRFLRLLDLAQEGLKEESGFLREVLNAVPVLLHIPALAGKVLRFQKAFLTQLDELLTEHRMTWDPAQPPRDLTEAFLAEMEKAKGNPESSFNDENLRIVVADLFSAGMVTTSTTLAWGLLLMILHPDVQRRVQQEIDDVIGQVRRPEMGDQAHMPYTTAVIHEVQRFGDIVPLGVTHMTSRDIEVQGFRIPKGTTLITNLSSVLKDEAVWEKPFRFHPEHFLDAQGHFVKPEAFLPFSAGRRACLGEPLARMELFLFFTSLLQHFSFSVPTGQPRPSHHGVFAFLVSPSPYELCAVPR
T2 sequence (P33261 whole entry): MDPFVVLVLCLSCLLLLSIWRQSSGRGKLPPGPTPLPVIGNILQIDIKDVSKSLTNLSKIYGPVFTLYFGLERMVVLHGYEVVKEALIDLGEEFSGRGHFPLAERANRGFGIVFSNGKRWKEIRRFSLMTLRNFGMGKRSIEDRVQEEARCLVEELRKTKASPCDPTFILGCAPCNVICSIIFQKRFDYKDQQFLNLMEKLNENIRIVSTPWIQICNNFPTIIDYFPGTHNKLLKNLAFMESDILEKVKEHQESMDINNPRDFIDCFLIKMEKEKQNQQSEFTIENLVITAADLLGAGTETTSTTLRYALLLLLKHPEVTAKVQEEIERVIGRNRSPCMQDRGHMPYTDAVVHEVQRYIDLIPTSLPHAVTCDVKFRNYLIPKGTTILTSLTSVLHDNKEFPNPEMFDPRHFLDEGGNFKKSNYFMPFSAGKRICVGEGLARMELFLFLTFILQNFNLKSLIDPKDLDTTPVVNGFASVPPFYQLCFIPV
Chain of CYP2C9 (P11712 whole entry): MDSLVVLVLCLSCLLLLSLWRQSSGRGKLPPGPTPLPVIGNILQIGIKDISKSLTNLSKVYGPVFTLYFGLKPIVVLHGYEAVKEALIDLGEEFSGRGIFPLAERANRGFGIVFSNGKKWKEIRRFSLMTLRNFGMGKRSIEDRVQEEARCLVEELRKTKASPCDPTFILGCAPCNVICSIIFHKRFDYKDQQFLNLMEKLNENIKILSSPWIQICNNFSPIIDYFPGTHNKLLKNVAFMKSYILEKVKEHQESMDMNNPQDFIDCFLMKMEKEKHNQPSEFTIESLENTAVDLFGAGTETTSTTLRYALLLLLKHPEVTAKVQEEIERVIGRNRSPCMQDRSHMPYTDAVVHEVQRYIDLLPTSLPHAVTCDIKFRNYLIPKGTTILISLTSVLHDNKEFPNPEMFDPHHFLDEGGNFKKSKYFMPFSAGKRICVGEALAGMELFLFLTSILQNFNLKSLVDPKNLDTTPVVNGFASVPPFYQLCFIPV
Chain of CYP2E1 (P05181 whole entry): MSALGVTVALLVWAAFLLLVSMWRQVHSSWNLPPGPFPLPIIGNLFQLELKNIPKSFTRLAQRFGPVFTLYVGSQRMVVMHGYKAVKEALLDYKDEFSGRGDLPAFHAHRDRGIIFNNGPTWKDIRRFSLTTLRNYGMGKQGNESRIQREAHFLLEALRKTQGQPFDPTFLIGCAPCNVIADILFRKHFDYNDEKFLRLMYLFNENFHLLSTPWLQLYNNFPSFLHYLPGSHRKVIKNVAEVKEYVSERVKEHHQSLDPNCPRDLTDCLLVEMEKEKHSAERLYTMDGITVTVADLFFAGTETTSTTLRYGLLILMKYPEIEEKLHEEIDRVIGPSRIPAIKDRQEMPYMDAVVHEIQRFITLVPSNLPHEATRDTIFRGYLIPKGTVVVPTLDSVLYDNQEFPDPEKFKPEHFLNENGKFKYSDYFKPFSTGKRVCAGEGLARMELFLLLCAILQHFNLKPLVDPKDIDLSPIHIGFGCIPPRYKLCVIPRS

SMILES | IC50 (CYP2C9) | inhibition at 15 min, 10 µM (CYP2C9) | IC50 (CYP2C19 [2]) | IC50 (CYP2C8) | inhibition at 15 min, 10 µM (CYP2C8) | IC50 (CYP2E1) | inhibition at 15 min, 10 µM (CYP2E1; microsomes) | IC50 at 15 min (CYP3A; [5]) | IC50 at 15 min (CYP3A; [6]) | IC50 (CYP1A2) | inhibition at 15 min, 10 µM (CYP3A; [7]) | other results
O=c1cc(-c2ccc(O)c(-c3c(O)cc(O)c4c(=O)cc(-c5ccc(O)cc5)oc34)c2)oc2cc(O)cc(O)c12 [Amentoflavone] | 0.142 µM | > 50% | 1.06 µM | 0.144 µM | > 50% | 1.05 µM | > 50% | 0.827 µM | 0.435 µM | 3.7 µM | – | IC50 (CYP2D6 [1]): 4.6 µM; inhibition at 15 min, 10 µM (CYP2D6 [1]; human, microsomes, pH 7.4): > 50%; inhibition at 15 min, 10 µM (CYP2C19 [2]; human, microsomes, pH 7.4): > 50%; inhibition at 15 min, 10 µM (CYP3A; pH 7.4, single-point, 10 μM, cocktail assay, HLM, substrate not specified, read-out: inhibitory effect on CYP3A): > 50%; inhibition at 15 min, 10 µM (CYP1A2; human, liver microsomes, pH 7.4, probe Phenacetin (in cocktail), single-point, 10 μM, HLM, read-out: inhibitory effect on CYP1A2): > 50%
O=c1cc(-c2ccc(O)cc2)oc2cc(O)cc(O)c12 [Apigenin] | – | > 50% | – | – | > 50% | – | > 50% | – | – | – | > 50% | –
O=c1cc(-c2ccc(Oc3c(-c4ccc(O)cc4)oc4cc(O)cc(O)c4c3=O)cc2)oc2cc(O)cc(O)c12 [Delicaflavone] | 40 µM | – | 72.8 µM | 13.4 µM | – | 2.86 µM | – | 33.3 µM | 7.25 µM | 105 µM | – | inhibitory effect on CYP2D6 (CYP2D6 [1]; [8]): no obvious inhibitory effect; inhibitory effect on CYP2C9 (CYP2C9; [8]): no obvious inhibitory effect; inhibitory effect on CYP2C19 (CYP2C19 [2]; [8]): no obvious inhibitory effect; inhibitory effect on CYP2C8 (CYP2C8; [8]): no obvious inhibitory effect; inhibitory effect on CYP2E1 (CYP2E1; [8]): weak inhibitory effect; inhibitory effect on CYP3A (CYP3A; single-point, 10 μM, cocktail assay, HLM, substrate not specified): weak inhibitory effect; time-dependent inhibition on CYP2D6 (CYP2D6 [3]): did not produce time-dependent inhibition effect; time-dependent inhibition on CYP2C19 (CYP2C19 [4]): did not produce time-dependent inhibition effect; inhibitory effect on CYP1A2 (CYP1A2; single-point, 10 μM, HLM): no obvious inhibitory effect; time-dependent inhibition on CYP3A (Testosterone) (CYP3A (Testosterone)): did not produce time-dependent inhibition effect
COc1cc2c(cc1OC)-c1cc3ccc(OC)c(OC)c3c[n+]1CC2 [Palmatine] | – | – | – | – | – | – | – | – | – | – | > 50% | inhibitory effect on CYP2E1 (CYP2E1; microsomes, 10 µM): weak inhibitory effect
